Measured values taken from patent publication US5284829A, “Synthetic tetrapeptides for the prevention of schistosome parasite infection” (priority 1991, dated 1994).
Where a SMILES comes first, the peptide text is derived from it. [ ]: non-standard residue; d: D form. The star is where a group is joined. pNA = O=[N+]([O-])c1ccc(N*)cc1; AMC = Cc1cc(=O)oc2cc(N*)ccc12; MeOSuc = COC(=O)CCC(=O)*; Nle = CCCC[C@H](N)C(=O)O; SBn = c1ccc(CS*)cc1; CH2Cl = ClC*

biological target: Cercarial Proteinase (Schistosoma mansoni, UniProt P12546); experiment: biochemical; conditions: not given
Sequence (P12546 28-264): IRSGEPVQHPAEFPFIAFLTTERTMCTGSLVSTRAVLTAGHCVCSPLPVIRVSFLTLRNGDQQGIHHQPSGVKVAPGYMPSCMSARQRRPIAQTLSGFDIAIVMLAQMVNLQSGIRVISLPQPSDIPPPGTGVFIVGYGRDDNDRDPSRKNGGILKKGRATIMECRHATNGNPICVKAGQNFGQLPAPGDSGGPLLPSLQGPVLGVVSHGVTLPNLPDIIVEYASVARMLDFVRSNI
Method: The chloromethyl ketone-derivatized peptide inhibitors were designed by us based on our computer model, and synthesized for us by Enzyme System Products (Dublin, Calif.). Stock solutions of inhibitors (25 mM) were prepared in dimethyl sulfoxide (DMSO). The rate of irreversible inactivation of the protease was followed by withdrawing a 25 μl sample at 4 time intervals after mixing 125 μl of enzyme with 5 μl of inhibitor. […] B. 1962. J. Biol. Chem. 237, 3245) using MeO-Suc-Ala-Ala-Pro-Phe-Sbzl (Sbzl, benzyl thioester) as substrate. Inactivation constants for the boronic acid-derivatized peptides (MeO-Suc-Ala-Ala-Pro (D or L) boro-Phe-OH, a gift from Dr. Charles Kettner, E. I. Dupont de Nemours, Wilmington, Del.) were calculated using MeO-Suc-Ala-Ala-Pro-Phe-Sbzl as the substrate at 125 and 250 μM. Five different concentrations of each inhibitor were used per substrate concentration. The data were plotted according to Dixon and kinactivation values were extrapolated from the graph (Dixon, 1953. Biochem. J. 55, 170-171).
Therefore a boronic acid derivatized peptide analogous to the chloromethyl ketone derivatized Ala-Ala-Pro-Phe sequence was also tested. […] Stereoisomers of the same peptide were also evaluated.

Point of comparison: `COC(=O)CCC(=O)N[C@@H](C)C(=O)N[C@@H](C)C(=O)N1CCC[C@H]1C(=O)N[C@@H](Cc1ccccc1)C(=O)CCl` [MeO-Suc-Ala-Ala-Pro-Phe-CMK] (MeOSuc-AAPF-CH2Cl), IC50 88 nM. Against it:
- COC(=O)CCC(=O)N[C@@H](C)C(=O)N[C@@H](C)C(=O)N1CCC[C@H]1C(=O)N[C@@H](C)C(=O)CCl [MeO-Suc-Ala-Ala-Pro-Ala-CMK] (MeOSuc-AAPA-CH2Cl) — higher, > 100000 nM
- COC(=O)CCC(=O)N[C@@H](C)C(=O)N[C@@H](C)C(=O)N1CCC[C@H]1C(=O)N[C@@H](CC(C)C)C(=O)CCl [MeO-Suc-Ala-Ala-Pro-Leu-CMK] (MeOSuc-AAPL-CH2Cl) — 2.4-fold lower, 36 nM

biological target: T1, cercarial protease (Schistosoma mansoni, UniProt P12546); experiment: not given; type: biochemical; conditions: substrate hydrolysis, 100 mM glycine/NaOH, 2 mM CaCl2, pH 9.0; Lineweaver-Burk
T1 construct: Serine protease was isolated from the acetabular glands of cercariae as described previously in McKerrow et al., 1985; from tissue; host or cells: acetabular glands of cercariae
T1 sequence (P12546 28-264): as above
Method: Serine protease was isolated from the acetabular glands of cercariae as described previously in McKerrow et al., 1985. J. Biol. Chem. 260, 3703-3707. All tetrapeptide thioester (Sbzl) substrates with the exception of MeO-Suc-Ala-Ala-Pro-Lys-Sbzl (a gift from Dr. James C. Powers, School of Chemistry, Georgia Institute of Technology, Atlanta, Ga.) were purchased from Enzyme System Products (Dublin, Calif.). Stock solutions (25 mM) of all substrates were prepared in dimethyl sulfoxide (DMSO). Rates of hydrolysis of substrates were measured by adding 1-10 μl of substrate and 25 μl of 1 mM 4,4'-dithiodipyridine in DMSO to buffer (100 mM glycine/NaOH, 2 mM CaCl2, pH 9.0) to give a total volume of 1.0 ml. A 10 μl enzyme sample was added to start the reaction. The increase in the absorbance at 325 nm was followed on a Gilford spectrophotometer. An ε value of 19,800 was used for the thiopyridine production.
Assays of paranitroanilide (pNA) and 7-amino-4-methyl coumarin (AMC) derivatized peptides were carried out as described in McKerrow et al., 1985. J. Biol. Chem. 260, 3703-3707. MeO-Suc-Ala-Ala-Pro-Phe-pNA was from Vega Biochemicals, Tucson, Az. MeO-Suc-Ala-Ala-Pro-Leu-pNA was a gift of Dr. David Agard, Department of Biochemistry, UCSF. All other pNA substrates were a gift of Dr. Corey Largman, Veterans Administration Hospital, Martinez, Calif. All AMC substrates were from Enzyme Systems Products, Dublin, Calif.
For each peptide substrate, the substrate concentration range was varied over ten-fold. The kinetic constants were determined from the initial rates of product formation using a least squares analysis according to method of Lineweaver-Burk (Lineweaver, H. & Burk, D. 1934. J. Am. Chem. Soc. 56, 658).

Point of comparison: `COC(=O)CCC(=O)N[C@@H](C)C(=O)N[C@@H](C)C(=O)N1CCC[C@H]1C(=O)N[C@@H](CC(C)C)C(=O)SCc1ccccc1` [MeO-Suc-Ala-Ala-Pro-Leu-Sbzl] (MeOSuc-AAPL-SBn), Km 464 µM. Against it:
- COC(=O)CCC(=O)N[C@@H](C)C(=O)N[C@@H](C)C(=O)N1CCC[C@H]1C(=O)N[C@@H](CC(C)C)C(=O)Nc1ccc([N+](=O)[O-])cc1 [MeO-Suc-Ala-Ala-Pro-Leu-pNA] (MeOSuc-AAPL-pNA) — 3.9-fold lower, 118 µM
- COC(=O)CCC(=O)N[C@@H](C)C(=O)N[C@@H](C)C(=O)N1CCC[C@H]1C(=O)N[C@@H](CCSC)C(=O)Nc1ccc([N+](=O)[O-])cc1 [MeO-Suc-Ala-Ala-Pro-Met-pNA] (MeOSuc-AAPM-pNA) — 1.5-fold lower, 300 µM
- CCCC[C@H](NC(=O)[C@@H]1CCCN1C(=O)[C@H](C)NC(=O)[C@H](C)NC(=O)CCC(=O)OC)C(=O)Nc1ccc([N+](=O)[O-])cc1 [MeO-Suc-Ala-Ala-Pro-Nle-pNA] (MeOSuc-AAP[Nle]-pNA) — 1.5-fold lower, 300 µM
- COC(=O)CCC(=O)N[C@@H](C)C(=O)N[C@@H](C)C(=O)N1CCC[C@H]1C(=O)N[C@@H](Cc1ccccc1)C(=O)SCc1ccccc1 [MeO-Suc-Ala-Ala-Pro-Phe-Sbzl] (MeOSuc-AAPF-SBn) — 4.8-fold lower, 96 µM
- COC(=O)CCC(=O)N[C@@H](C)C(=O)N[C@@H](C)C(=O)N1CCC[C@H]1C(=O)N[C@@H](Cc1ccccc1)C(=O)Nc1ccc([N+](=O)[O-])cc1 [MeO-Suc-Ala-Ala-Pro-Phe-pNA] (MeOSuc-AAPF-pNA) — 3.9-fold lower, 119 µM
- COC(=O)CCC(=O)N[C@@H](Cc1ccccc1)C(=O)N[C@@H](C)C(=O)N1CCC[C@H]1C(=O)N[C@@H](Cc1ccccc1)C(=O)SCc1ccccc1 [MeO-Suc-Phe-Ala-Pro-Phe-Sbzl] (MeOSuc-FAPF-SBn) — 1.9-fold lower, 244 µM

same assay, conditions: very low activity = absorbance change less than 0.001 O.D. in 40 min with 1.5 mM substrate

For `COC(=O)CCC(=O)N[C@@H](C)C(=O)N[C@@H](C)C(=O)N1CCC[C@H]1C(=O)N[C@@H](C)C(=O)Nc1ccc2c(C)cc(=O)oc2c1` [MeO-Suc-Ala-Ala-Pro-Ala-AMC] (MeOSuc-AAPA-{AMC}), the “substrate hydrolysis activity (in words)” value was “no activity”.
With `COC(=O)CCC(=O)N[C@@H](C)C(=O)N[C@@H](C)C(=O)N1CCC[C@H]1C(=O)N[C@@H](C)C(=O)SCc1ccccc1` [MeO-Suc-Ala-Ala-Pro-Ala-Sbzl] (MeOSuc-AAPA-SBn) the “substrate hydrolysis activity (in words)” value was “no activity”.
For `COC(=O)CCC(=O)N[C@@H](C)C(=O)N[C@@H](C)C(=O)N1CCC[C@H]1C(=O)N[C@@H](CCCCN)C(=O)SCc1ccccc1` [MeO-Suc-Ala-Ala-Pro-Lys-Sbzl] (MeOSuc-AAPK-SBn), the “substrate hydrolysis activity (in words)” value was “no activity”.
With `COC(=O)CCC(=O)N[C@@H](C)C(=O)N[C@@H](C)C(=O)N1CCC[C@H]1C(=O)N[C@H](C(=O)Nc1ccc2c(C)cc(=O)oc2c1)C(C)C` [MeO-Suc-Ala-Ala-Pro-Val-AMC] (MeOSuc-AAPV-{AMC}) the “substrate hydrolysis activity (in words)” value was “no activity”.
With `COC(=O)CCC(=O)N[C@@H](Cc1c[nH]c2ccccc12)C(=O)N[C@@H](C)C(=O)N1CCC[C@H]1C(=O)N[C@@H](Cc1ccccc1)C(=O)SCc1ccccc1` [MeO-Suc-Trp-Ala-Pro-Phe-Sbzl] (MeOSuc-WAPF-SBn) the “substrate hydrolysis activity (in words)” value was “no activity”.

biological target: T1, cercarial protease; experiment: biochemical; conditions: not given
Method: The chloromethyl ketone-derivatized peptide inhibitors were designed by us based on our computer model, and synthesized for us by Enzyme System Products (Dublin, Calif.). Stock solutions of inhibitors (25 mM) were prepared in dimethyl sulfoxide (DMSO). The rate of irreversible inactivation of the protease was followed by withdrawing a 25 μl sample at 4 time intervals after mixing 125 μl of enzyme with 5 μl of inhibitor. Kitz and Wilson's methods of analysis were used for calculation of Ki, k3, and k3 /Ki (Kitz R. & Wilson, I. B. 1962. J. Biol. Chem. 237, 3245) using MeO-Suc-Ala-Ala-Pro-Phe-Sbzl (Sbzl, benzyl thioester) as substrate. Inactivation constants for the boronic acid-derivatized peptides (MeO-Suc-Ala-Ala-Pro (D or L) boro-Phe-OH, a gift from Dr. Charles Kettner, E. I. Dupont de Nemours, Wilmington, Del.) were calculated using MeO-Suc-Ala-Ala-Pro-Phe-Sbzl as the substrate at 125 and 250 μM. Five different concentrations of each inhibitor were used per substrate concentration. The data were plotted according to Dixon and kinactivation values were extrapolated from the graph (Dixon, 1953. Biochem. J. 55, 170-171).

Point of comparison: `COC(=O)CCC(=O)N[C@@H](Cc1c[nH]c2ccccc12)C(=O)N[C@@H](C)C(=O)N1CCC[C@H]1C(=O)N[C@@H](CC(C)C)C(=O)CCl` [MeO-Suc-Trp-Ala-Pro-Leu-CMK] (MeOSuc-WAPL-CH2Cl), Ki 2 µM. Against it:
- COC(=O)CCC(=O)N[C@@H](C)C(=O)N[C@@H](C)C(=O)N1CCC[C@H]1C(=O)N[C@@H](CC(C)C)C(=O)CCl [MeO-Suc-Ala-Ala-Pro-Leu-CMK] (MeOSuc-AAPL-CH2Cl) — 6-fold higher, 12 µM
- COC(=O)CCC(=O)N[C@@H](C)C(=O)N[C@@H](C)C(=O)N1CCC[C@H]1C(=O)N[C@@H](Cc1ccccc1)C(=O)CCl [MeO-Suc-Ala-Ala-Pro-Phe-CMK] (MeOSuc-AAPF-CH2Cl) — 6.5-fold higher, 13 µM
- COC(=O)CCC(=O)N[C@@H](C)C(=O)N[C@@H](C)C(=O)N1CCC[C@H]1C(=O)N[C@@H](Cc1c[nH]c2ccccc12)C(=O)CCl [MeO-Suc-Ala-Ala-Pro-Trp-CMK] (MeOSuc-AAPW-CH2Cl) — 10-fold higher, 20 µM
- COC(=O)CCC(=O)N[C@@H](C)C(=O)N[C@@H](CCCCN)C(=O)N1CCC[C@H]1C(=O)N[C@@H](Cc1ccccc1)C(=O)CCl [MeO-Suc-Ala-Lys-Pro-Phe-CMK] — 3.5-fold higher, 7 µM
- COC(=O)CCC(=O)N[C@@H](Cc1ccccc1)C(=O)N[C@@H](C)C(=O)N1CCC[C@H]1C(=O)N[C@@H](Cc1ccccc1)C(=O)CCl [MeO-Suc-Phe-Ala-Pro-Phe-CMK] (MeOSuc-FAPF-CH2Cl) — 2-fold lower, 1 µM
- COC(=O)CCC(=O)N[C@@H](Cc1c[nH]c2ccccc12)C(=O)N[C@@H](C)C(=O)N1CCC[C@H]1C(=O)N[C@@H](Cc1ccccc1)C(=O)CCl [MeO-Suc-Trp-Ala-Pro-Phe-CMK] (MeOSuc-WAPF-CH2Cl) — 6-fold higher, 12 µM

test system: cercariae of Schistosoma mansoni (Puerto Rican strain); experiment: not given; type: cell-based; conditions: 50 micromolar
Method: A modification of the assay developed by Clegg and Smithers (Clegg & Smithers, 1972. Int. J. Parasitol. 2, 79-98.) was used. Two Plexiglass chambers were manufactured which could be screwed together to hold a 25×25 mm section of skin at the interface of the two chambers. Human skin was obtained from autopsy (6-12 hours following death) or from amputation specimens received at the Department of Surgical Pathology, UCSF. The chamber below the skin was filled with tissue culture medium (DME H16) prewarmed to 37° C. After the skin was clamped, the upper chamber was filled with water containing 9000 cercariae of Schistosoma mansoni (Puerto Rican strain). Cercariae will follow a thermal gradient, and they are stimulated by the lipid on the surface of skin to invade (Stirewalt, 1974. Adv. Parasitol. 12, 115-180). After one hour exposure to cercariae the skin was removed, fixed in 10% phosphate buffered formalin for 24 h, and sectioned at 2 mm intervals. Following dehydration and routine paraffin embedding, 5μ sections were cut by microtome and stained with hemotoxylin and eosin. The number of cercariae which had invaded epidermis or dermis was counted in each section. Percent inhibition of invasion was calculated as [formula] All assays were done in triplicate and standard deviation of the mean calculated. […]

For `COC(=O)CCC(=O)N[C@@H](C)C(=O)N[C@@H](C)C(=O)N1CCC[C@H]1C(=O)N[C@H](Cc1ccccc1)B(O)O` [MeO-Suc-Ala-Ala-Pro-(D)boro-Phe-OH], the “cercariae inhibited from invading skin” value was “less than 20%”.

With `COC(=O)CCC(=O)N[C@@H](C)C(=O)N[C@@H](C)C(=O)N1CCC[C@H]1C(=O)N[C@@H](Cc1ccccc1)B(O)O` [MeO-Suc-Ala-Ala-Pro-(L)boro-Phe-OH] the “cercariae inhibited from invading skin” value was 50%.
